# From patent US6787527B1, “Methods of preventing and treating HIV infection” (Duke University, priority 1994, dated 2004)
# Experiments:
# HIV-1-IIIB [1] = experiment: HIV-1 infection of leukemia cell lines Jurkat, CEM, HL-60, U937, supernatant medium RT activity; format: cell-based; conditions: HL-60, U937 cell lines
# Experimental: (§1) Monocytes and lymphocytes were isolated and cultured as previously described (J. Exp. Med. 174:1477 (1991)). Briefly, monocytes were isolated by sequential ficoll-sodium diazotrate and Percoll gradients with subsequent adherence to cultureware plastic, and then cultured in Dulbecco's modified Eagle medium (GIBCO, Grand Islands, N.Y.) with 10% unheated human serum. Lymphocytes were from ficoll-sodium diazotrate gradients, and were cultured with anti-CD3/anti-CD28 antibody and subsequently IL-2. Reverse transcription (RT) was measured as described (Weinberg et al, J. Exp. Med. 174:1477 (1991)) using a phosphoimager device for quantification. Leukemia cell lines Jurkat, CEM, HL-60, and U937 were obtained from American Type Culture Collection (Rockville, Md.). The cells were cultured in RPMI-1640 with 10% fetal bovine serum (Hyclone, Logan, Utah). Cobalamins were obtained from Sigma Chemical Company (St. Louis, Mo.). The cobalamins had extremely low endotoxin content, as determined by Limulus amebocyte lysate testing (Whitaker Bioproducts, Walkerville, Md.). When tested as a 3 mM solution, the cobalamins had less than 0.25 EU/ml. Cobalamins were not toxic for Mo, Mac, Lym, and leukemia cell line cells, as determined by morphology under phase microscopy, Wright staining of methanol-fixed cells, trypan blue exclusion, and thymidine incorporation were carried out in accordance with standard techniques.
# Cells of the T lymphoblast cell line Jurkat and CEM, the myeloblast cell line HL-60, and the monoblast cell line U937 were inoculated with HIV-1-IIIB (MOI ˜0.1) and cultured for with the designated cobalamin for 10-20 days. Supernatant medium RT was then measured. Results are provided as RT activity (mean±SEM of triplicates) and are derived from one experiment.
# [2] = molecular target: T1, recombinant CD4 with gp120 from HIV-1-MN (UniProt P01730+P05877); experiment: CD4-gp120 binding, gp120 from HIV-1-MN
# T1 construct: recombinant CD4 with gp120 from HIV-1-IIIB or HIV-1-MN
# Experimental: (§2) Cobalamins were incubated with CD4 and gp120 from HIV-1-IIIB in wells of microtiter wells, and binding was assessed as previously described. […] Serum from an HIV-1-infected person containing anti-gp120 antibody served as the “positive control”.
# (§3) To determine whether cobalamins modified the binding of HIV-1 gp120 to CD4, the abilities of CN-Cbl, OH-Cbl, Me-Cbl, and Ado-Cbl to inhibit binding of recombinant CD4 with gp120 from HIV-1-IIIB or HIV-1-MN were tested (FIG. 2). No inhibition of binding was observed.
# RT = molecular target: T2, RT (Human immunodeficiency virus type 1 group M subtype B, UniProt P04585); experiment: RT activity in cell-free medium; format: biochemical, HIV-1; conditions: 1 to 1000 μM added to cell-free medium containing RT
# T2 construct: added to cell-free medium containing RT
# [3] = molecular target: T3, recombinant CD4 with gp120 from HIV-1-IIIB (UniProt P01730+P04578); experiment: CD4-gp120 binding, gp120 from HIV-1-IIIB
# T3 construct: gp120 from HIV-1-IIIB
# Experimental: as §2, §3
# HIV-1-BaL [4] = experiment: HIV-1 infection of monocytes / mononuclear phagocytes (Mo, Mac), supernatant medium RT activity; format: cell-based; conditions: for inhibition of productive HIV-1 infection: Mo, Mac, added at viral inoculation and left in throughout culture
# Experimental: as §1
# Monocytes were inoculated at time zero with HIV-1-Bal (Weinberg et al, J. Exp. Med. 174:1477 (1991)) (MOI ˜0.1)and cultured with the designated cobalamin for 7-14 days. Supernatant medium RT was then measured (Weinberg et al, J. Exp. Med. 174:1477 (1991)). Results are provided as RT activity (mean±SEM of triplicates)and are derived from one experiment.
# HIV-1-IIIB [5] = experiment: HIV-1 infection of PBL, supernatant medium RT activity; format: cell-based; conditions: added at viral inoculation and left in throughout culture
# Experimental: as §1
# PBL were inoculated with HIV-1-IIIB (MOI ˜0.1) and cultured with the designated cobalamin for 15-25 days. Supernatant medium RT was then measured. Results are provided as RT activity (mean±SEM of triplicates) and are derived from one experiment.
# [6] = test system: U1 cells and OM-10.1 cells (HIV-1 integrated provirus); experiment: TNF- or PMA-induced viral RT expression in latently-infected leukemia cells; format: cell-based, human; conditions: 250 μM; 500 U/ml TNF or 80 nM PMA; U1 and OM-10.1 cells
# Experimental: To determine whether OH-Cbl would inhibit the ability of latently-infected leukemia cells to produce RT after stimulation with tumor necrosis factor (TNF) or phorbol myristate acetate (PMA), U1 (U937 monoblastic cell line with HIV-1 integrated provirus) cells (NIH AIDS Repository) and OM-10.1 cells (HL-60 myelobastic cell line with HIV-1 integrated provirus) (Dr. Clay Smith, Duke University, Durham, N.C.) were treated with 500 U/ml TNF or 80 nM PMA (with or without 250 μM OH-Cbl).
# HIV-1-BaL [7] = experiment: Syncytium (multinucleated giant cell) formation in HIV-1-inoculated monocytes; format: cell-based; conditions: 67 μM, HIV-1-BaL MOI ~0.1, 14 days
# Experimental: OH-Cbl, Me-Cbl, Ado-Cbl, and CN-Cbl were not toxic for Mo, Mac, PBL, or cells of the human leukemia cell lines Jurkat, CEM, HL-60, or U937 at concentrations ≦600 μM. When added to the cultures of Mo, Mac, or PBL at the time of viral inoculation on day zero and left in throughout the culture period, there was potent inhibition of productive infection as judged by supernatant medium RT activity (see FIG. 1). Further evidence of the cobalamin inhibitory effect was derived from studies examining syncytium formation. Populations of monocytes not inoculated with virus were generally mononuclear, while those inoculated with HIV-1-BaL (MOI ˜0.1) cultured (14 days) without OH-Cbl (67 μM) had numerous multinucleated giant cells (syncytium).
# [8] = humans, 5 to 7 grams by bolus intravenous infusion; cited from earlier work
# [9] = test system: Mo, Mac, PBL, human leukemia cell lines Jurkat, CEM, HL-60, U937; experiment: Toxicity for cells (morphology, Wright staining, trypan blue exclusion, thymidine incorporation); format: cell-based; conditions: concentrations ≦600 μM
# Experimental: as §1, with “When tested as a 3 mM solution, the cobalamins had less than 0.25 EU/ml.” left out
Molecule,inhibition of HIV-1 infection (HIV-1-IIIB [1]),inhibition of CD4-gp120 binding [2],inhibition of RT activity (RT),inhibition of CD4-gp120 binding [3],inhibition of productive HIV-1 infection (HIV-1-BaL [4]),inhibition of productive HIV-1 infection (HIV-1-IIIB [5]),"inhibitory effect in vitro (HIV-1-BaL [4]; in vitro, summary statement)",inhibition of expression of induced viral RT [6],inhibition of syncytium formation (HIV-1-BaL [7]),resultant serum levels [8],side effects [8],toxicity for cells [9],"inhibition of HIV-1 infection (HIV-1-BaL [4]; Mo incubated simultaneously with 250 μM and HIV-1 for 4 hours, washed, cultured 10 days)","inhibition of subsequent RT production (HIV-1-BaL [4]; Mo inoculated and cultured 6 days, washed, then cultured with 250 μM)","inhibition of RT (HIV-1-BaL [4]; Mo pretreated with 250 μM for 24 hours, washed, then inoculated with HIV-1-BaL)"
C/C1=C2/[N-][C@H]([C@H](CC(N)=O)[C@@]2(C)CCC(=O)NC[C@@H](C)OP(=O)([O-])O[C@H]2[C@@H](O)[C@@H](n3cnc4cc(C)c(C)cc43)O[C@@H]2CO)[C@]2(C)N=C(/C(C)=C3N=C(/C=C4N=C1[C@@H](CCC(N)=O)C\4(C)C)[C@@H](CCC(N)=O)[C@]\3(C)CC(N)=O)[C@@H](CCC(N)=O)[C@]2(C)CC(N)=O.[CH3-].[Co] [Me-Cbl],did not inhibit,No inhibition,inhibition of RT activity was not observed,No inhibition,inhibited,inhibited,–,–,–,–,–,–,–,–,–
"C/C1=C2/[N-]C([C@H](CC(N)=O)[C@@]2(C)CCC(=O)NC[C@@H](C)OP(=O)([O-])O[C@H]2[C@@H](O)[C@@H](n3cnc4cc(C)c(C)cc43)O[C@@H]2CO)[C@]2(C)N=C(/C(C)=C3N=C(/C=C4N=C1[C@@H](CCC(N)=O)C\4(C)C)[C@@H](CCC(N)=O)[C@]\3(C)CC(N)=O)[C@@H](CCC(N)=O)[C@]2(C)CC(N)=O.[CH2-][C@H]1O[C@@H](n2cnc3c(N)ncnc32)[C@@H](O)[C@@H]1O.[Co+3] [Ado-Cbl, adencobalamin]",did not inhibit,No inhibition,inhibition of RT activity was not observed,No inhibition,inhibited,inhibited,–,–,–,–,–,–,–,–,–
cyanocobalamin [CN-Cbl],–,No inhibition,inhibition of RT activity was not observed,No inhibition,little or no inhibitory activity,little or no inhibitory activity,little or no inhibitory effect,–,–,–,–,–,–,–,–
"C/C1=C2/[N-][C@H]([C@H](CC(N)=O)[C@@]2(C)CCC(=O)NC[C@@H](C)OP(=O)([O-])O[C@H]2[C@@H](O)[C@@H](n3cnc4cc(C)c(C)cc43)O[C@@H]2CO)[C@]2(C)N=C(/C(C)=C3N=C(/C=C4N=C1[C@@H](CCC(N)=O)C\4(C)C)[C@@H](CCC(N)=O)[C@]\3(C)CC(N)=O)[C@@H](CCC(N)=O)[C@]2(C)CC(N)=O.[Co+3].[OH-] [OH-Cbl, hydroxocobalamin]",did not inhibit,No inhibition,inhibition of RT activity was not observed,No inhibition,inhibited,inhibited,–,did not inhibit,100%,μM to mM,minimal,not toxic,no inhibition,no inhibition,approximately 80%
